According to ChEMBL document CHEMBL5390283, “Discovery of PVD-06 as a Subtype-Selective and Efficient PTPN2 Degrader” (J Med Chem, 2023):
Blank lines part the entries; values can stand above or below the compound they belong to. The source made the active and inactive calls. The rule behind the calls is not given here.

What was measured:
[1] = molecular target: von Hippel-Lindau disease tumor suppressor/Tyrosine-protein phosphatase non-receptor type 1 (Homo sapiens, UniProt P18031+P40337); assay: PROTAC activity at VHL/PTP1B in human Jurkat cells assessed as induction of PTP1B degradation by Western blot analysis; format: cell-based
Jurkat [2] = assay: Effect on PTPN1 level in human Jurkat cells at 1 uM incubated for 24 hrs by label free proteomic analysis; format: functional, cell-based
Jurkat [3] = assay: Effect on PTPN9 level in human Jurkat cells at 1 uM incubated for 24 hrs by label free proteomic analysis; format: functional, cell-based
[4] = molecular target: T1, von Hippel-Lindau disease tumor suppressor/Tyrosine-protein phosphatase non-receptor type 2 (Homo sapiens, UniProt P17706+P40337); assay: PROTAC activity at VHL/PTPN2 in human Jurkat cells assessed as induction of PTPN2 degradation at 1 uM by Western blot analysis relative to control; format: cell-based
Target sequence in this assay (P40337 whole entry, looked up, one chain of several): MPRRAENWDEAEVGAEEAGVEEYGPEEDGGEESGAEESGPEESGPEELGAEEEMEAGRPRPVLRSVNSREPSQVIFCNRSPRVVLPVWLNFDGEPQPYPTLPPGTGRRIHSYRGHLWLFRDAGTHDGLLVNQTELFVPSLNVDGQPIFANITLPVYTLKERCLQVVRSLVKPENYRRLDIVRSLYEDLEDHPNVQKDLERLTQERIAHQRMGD

Jurkat [5] = assay: Effect on STAT1 level in human Jurkat cells at 0.1 to 10 uM incubated for 24 hrs by Western blot analysis; format: functional, cell-based; settings: dose 0.1-10 µM
[6] = molecular target: T2, von Hippel-Lindau disease tumor suppressor/Receptor-type tyrosine-protein phosphatase N2 (Mus musculus) (UniProt P40338+P80560); assay: PROTAC activity at VHL/PTPN2 in mouse B16-F10 cells assessed as induction of PTPN2 degradation at 0.013 to 10 uM by Western blot analysis; format: cell-based; settings: dose 0.013-10 µM
Jurkat [7] = assay: Effect on PTP1B level in human Jurkat cells at 0.1 to 10 uM incubated for 24 hrs by Western blot analysis; format: functional, cell-based; settings: dose 0.1-10 µM
[8] = molecular target: T1, von Hippel-Lindau disease tumor suppressor/Tyrosine-protein phosphatase non-receptor type 2; assay: PROTAC activity at VHL/PTPN2 in human Jurkat cells assessed as induction of PTPN2 degradation at 10 uM by Western blot analysis relative to control; format: cell-based
Target sequence in this assay (P40337 whole entry, looked up, one chain of several): as above

Jurkat [9] = assay: Effect on PTPN18 level in human Jurkat cells at 1 uM incubated for 24 hrs by label free proteomic analysis; format: functional, cell-based
[10] = molecular target: T1, von Hippel-Lindau disease tumor suppressor/Tyrosine-protein phosphatase non-receptor type 2; assay: PROTAC activity at VHL/PTPN2 in human Jurkat cells assessed as induction of PTPN2 degradation at 1 uM by Western blot analysis; format: cell-based; settings: time 1-48 hrs, TDE = time-dependent effect
Target sequence in this assay (P40337 whole entry, looked up, one chain of several): as above

[11] = molecular target: T1, von Hippel-Lindau disease tumor suppressor/Tyrosine-protein phosphatase non-receptor type 2; assay: PROTAC activity at VHL/PTPN2 in human Jurkat cells assessed as induction of PTPN2 degradation at 1 uM incubated for 24 hrs by label free proteomic analysis; format: cell-based
Target sequence in this assay (P40337 whole entry, looked up, one chain of several): as above

B16-F10 [12] = assay: Effect on SHP-2 level in mouse B16-F10 cells at 0.013 to 10 uM by Western blot analysis; format: functional, cell-based; settings: dose 0.013-10 µM
[13] = molecular target: T1, von Hippel-Lindau disease tumor suppressor/Tyrosine-protein phosphatase non-receptor type 2; assay: PROTAC activity at VHL/PTPN2 in human Jurkat cells assessed as increase in STAT1 phosphorylation incubated for 23 hrs followed by IFN-gamma stimulation for 1 hr by Western blot analysis; format: cell-based; settings: dose <= 10.0 µM, time 24.0 hrs
Target sequence in this assay (P40337 whole entry, looked up, one chain of several): as above

[14] = molecular target: T1, von Hippel-Lindau disease tumor suppressor/Tyrosine-protein phosphatase non-receptor type 2; assay: PROTAC activity at VHL/PTPN2 in IFN-gamma-stimulated human Jurkat cells assessed as induction of PTPN2 degradation at 0.1 to 10 uM incubated for 24 hrs by Western blot analysis; format: cell-based; settings: dose 0.1-10 µM
Target sequence in this assay (P40337 whole entry, looked up, one chain of several): as above

B16-F10 [15] = assay: Effect on PTP1B level in mouse B16-F10 cells at 0.013 to 10 uM by Western blot analysis; format: functional, cell-based; settings: dose 0.013-10 µM
Splenocyte [16] = assay: Effect on SHP-2 level in mouse splenocytes cells at 0.013 to 10 uM by Western blot analysis; format: functional, cell-based; settings: dose 0.013-10 µM
Splenocyte [17] = assay: Effect on PTP1B level in mouse splenocytes at 0.013 to 10 uM by Western blot analysis; format: functional, cell-based; settings: dose 0.013-10 µM
HepG2 = assay: Effect on PTP1B level in human HepG2 cells at 0.013 to 10 uM by Western blot analysis; format: functional, cell-based; settings: dose 0.013-10 µM
[18] = molecular target: T2, von Hippel-Lindau disease tumor suppressor/Receptor-type tyrosine-protein phosphatase N2 (Mus musculus); assay: PROTAC activity at VHL/PTPN2 in mouse splenocytes assessed as induction of PTPN2 degradation at 0.013 to 10 uM by Western blot analysis; format: cell-based; settings: Splenocyte, dose 0.013-10 µM
[19] = molecular target: T1, von Hippel-Lindau disease tumor suppressor/Tyrosine-protein phosphatase non-receptor type 2; assay: PROTAC activity at VHL/PTPN2 in IFN-gamma-stimulated human Jurkat cells assessed as increase in STAT1 phosphorylation at 0.1 to 10 uM incubated for 24 hrs by Western blot analysis; format: cell-based; settings: dose 0.1-10 µM
Splenocyte [20] = assay: Effect on SHP-1 level in mouse splenocytes at 0.013 to 10 uM by Western blot analysis; format: functional, cell-based; settings: dose 0.013-10 µM
[21] = molecular target: T1, von Hippel-Lindau disease tumor suppressor/Tyrosine-protein phosphatase non-receptor type 2; assay: PROTAC activity at VHL/PTPN2 in human Jurkat cells assessed as induction of PTPN2 degradation by Western blot analysis; format: cell-based
Target sequence in this assay (P40337 whole entry, one chain of several): as the sequence (P40337 whole entry, looked up, one chain of several) above

Jurkat [22] = assay: Effect on PTP1B level in human Jurkat cells at 1 uM incubated for 1 to 48 hrs by Western blot analysis; format: functional, cell-based; settings: time 1-48 hrs
B16-F10 [23] = assay: Effect on SHP-1 level in mouse B16-F10 cells at 0.013 to 10 uM by Western blot analysis; format: functional, cell-based; settings: dose 0.013-10 µM
Jurkat [24] = assay: Effect on PTPN23 level in human Jurkat cells at 1 uM incubated for 24 hrs by label free proteomic analysis; format: functional, cell-based
Jurkat [25] = assay: Effect on PTPN6 level in human Jurkat cells at 1 uM incubated for 24 hrs by label free proteomic analysis; format: functional, cell-based
[26] = molecular target: T1, von Hippel-Lindau disease tumor suppressor/Tyrosine-protein phosphatase non-receptor type 2; assay: PROTAC activity at VHL/PTPN2 in human Jurkat cells assessed as induction of PTPN2 degradation at 100 nM by Western blot analysis relative to control; format: cell-based
Jurkat [27] = assay: Effect on PTPN11 level in human Jurkat cells at 1 uM incubated for 24 hrs by label free proteomic analysis; format: functional, cell-based
Jurkat [28] = assay: Effect on PTPN7 level in human Jurkat cells at 1 uM incubated for 24 hrs by label free proteomic analysis; format: functional, cell-based
B16-F10 [29] = assay: Inhibition of cell growth in IFN-gamma-treated mouse B16-F10 cells assessed as reduction in cell confluency measured upto 96 hrs; format: functional, cell-based; settings: dose 1.25-5 µM
[30] = molecular target: T1, von Hippel-Lindau disease tumor suppressor/Tyrosine-protein phosphatase non-receptor type 2; assay: PROTAC activity at VHL/PTPN2 in human HepG2 cells assessed as induction of PTPN2 degradation at 0.013 to 10 uM by Western blot analysis; format: cell-based; settings: dose 0.013-10 µM
Splenocyte [31] = assay: Induction of cell proliferation in anti-CD3/CD28-stimulated mouse splenocytes incubated for 3 days by CFSE dye based flow cytometry; format: functional; settings: dose 1.25-5 µM, time 3.0 day
[32] = molecular target: T3, Tyrosine-protein phosphatase non-receptor type 1 (Homo sapiens, UniProt P18031); assay: Inhibition of 6xHis-tagged PTP1B (unknown origin) Escherichia coli BL21 (DE3)-RIL using OMFP as substrate incubated for 30 mins by fluorescence based assay
T3 sequence (P18031 whole entry): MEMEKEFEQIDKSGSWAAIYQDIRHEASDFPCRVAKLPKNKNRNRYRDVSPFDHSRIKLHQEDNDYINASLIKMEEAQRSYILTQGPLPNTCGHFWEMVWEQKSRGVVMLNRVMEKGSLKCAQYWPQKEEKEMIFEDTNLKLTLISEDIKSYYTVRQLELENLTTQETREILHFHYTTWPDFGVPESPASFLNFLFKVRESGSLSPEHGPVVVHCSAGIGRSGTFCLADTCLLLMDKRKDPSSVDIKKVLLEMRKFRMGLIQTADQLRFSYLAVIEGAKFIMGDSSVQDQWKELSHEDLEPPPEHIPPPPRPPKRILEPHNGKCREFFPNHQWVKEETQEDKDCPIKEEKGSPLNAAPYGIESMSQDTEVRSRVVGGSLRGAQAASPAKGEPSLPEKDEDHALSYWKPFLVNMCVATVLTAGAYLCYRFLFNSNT

Splenocyte [33] = assay: Induction of cell proliferation in anti-CD3/CD28-stimulated mouse splenocytes at 0.625 to 10 uM incubated for 3 days by CFSE dye based flow cytometry; format: functional; settings: dose 0.625-10 µM, time 3.0 day
[34] = molecular target: T1, von Hippel-Lindau disease tumor suppressor/Tyrosine-protein phosphatase non-receptor type 2; assay: PROTAC activity at VHL/PTPN2 in human Jurkat cells assessed as residual activity of PTPN2 level at 1 uM by Western blot analysis relative to control; format: cell-based
[35] = molecular target: T4, Tyrosine-protein phosphatase non-receptor type 2 (Homo sapiens, UniProt P17706); assay: Inhibition of PTPN2 (unknown origin) using DiFMUP as substrate by […] based assay
T4 sequence (P17706 whole entry): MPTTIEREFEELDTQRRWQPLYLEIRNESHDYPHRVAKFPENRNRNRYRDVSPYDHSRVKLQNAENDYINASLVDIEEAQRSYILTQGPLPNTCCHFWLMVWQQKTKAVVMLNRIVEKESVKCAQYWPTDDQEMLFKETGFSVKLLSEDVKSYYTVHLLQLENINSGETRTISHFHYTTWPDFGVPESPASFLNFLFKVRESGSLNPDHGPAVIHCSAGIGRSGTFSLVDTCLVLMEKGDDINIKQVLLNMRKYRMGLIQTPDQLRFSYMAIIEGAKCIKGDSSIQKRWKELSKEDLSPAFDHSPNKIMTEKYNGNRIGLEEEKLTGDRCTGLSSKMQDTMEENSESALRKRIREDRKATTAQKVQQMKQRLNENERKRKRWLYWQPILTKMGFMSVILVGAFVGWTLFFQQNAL

[36] = molecular target: T3, Tyrosine-protein phosphatase non-receptor type 1; assay: Inhibition of PTP1B (unknown origin) using DiFMUP as substrate by […] based assay

T2 sequence (P40338 whole entry, looked up): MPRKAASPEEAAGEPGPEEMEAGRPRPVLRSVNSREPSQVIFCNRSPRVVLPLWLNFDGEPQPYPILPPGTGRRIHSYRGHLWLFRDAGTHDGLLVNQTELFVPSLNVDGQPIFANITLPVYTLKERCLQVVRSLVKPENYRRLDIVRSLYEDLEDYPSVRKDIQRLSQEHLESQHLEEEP
T2 sequence (P80560 whole entry, looked up): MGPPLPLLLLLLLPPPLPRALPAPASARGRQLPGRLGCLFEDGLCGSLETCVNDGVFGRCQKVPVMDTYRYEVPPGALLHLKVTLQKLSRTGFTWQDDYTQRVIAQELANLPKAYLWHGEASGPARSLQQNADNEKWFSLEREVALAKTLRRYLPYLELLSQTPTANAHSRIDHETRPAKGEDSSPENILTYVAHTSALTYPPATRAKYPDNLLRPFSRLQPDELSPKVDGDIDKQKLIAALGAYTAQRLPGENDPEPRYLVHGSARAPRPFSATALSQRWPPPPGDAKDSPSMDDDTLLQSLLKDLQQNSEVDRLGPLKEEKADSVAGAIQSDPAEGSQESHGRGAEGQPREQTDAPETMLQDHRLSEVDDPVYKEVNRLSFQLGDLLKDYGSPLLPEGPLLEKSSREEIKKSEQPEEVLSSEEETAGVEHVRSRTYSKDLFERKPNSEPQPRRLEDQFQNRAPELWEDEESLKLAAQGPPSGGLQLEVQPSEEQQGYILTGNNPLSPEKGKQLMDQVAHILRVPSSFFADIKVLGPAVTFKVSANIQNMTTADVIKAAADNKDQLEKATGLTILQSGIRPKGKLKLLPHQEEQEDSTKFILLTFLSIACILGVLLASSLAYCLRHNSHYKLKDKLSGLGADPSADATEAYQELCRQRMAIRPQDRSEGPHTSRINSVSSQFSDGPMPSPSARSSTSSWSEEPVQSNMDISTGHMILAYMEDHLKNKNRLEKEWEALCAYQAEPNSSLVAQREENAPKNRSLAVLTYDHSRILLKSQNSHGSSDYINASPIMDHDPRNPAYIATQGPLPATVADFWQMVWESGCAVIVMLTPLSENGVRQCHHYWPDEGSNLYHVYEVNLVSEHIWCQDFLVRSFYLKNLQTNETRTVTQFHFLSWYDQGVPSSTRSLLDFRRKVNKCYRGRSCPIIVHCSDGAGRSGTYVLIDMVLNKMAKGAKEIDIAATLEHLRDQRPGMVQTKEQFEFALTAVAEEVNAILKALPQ
von Hippel-Lindau disease tumor suppressor/Tyrosine-protein phosphatase non-receptor type 1, sequence (P40337 whole entry, one chain of several): as the sequence (P40337 whole entry, looked up, one chain of several) above

SMILES: Cc1ncsc1-c1ccc([C@H](C)NC(=O)[C@@H]2C[C@@H](O)CN2C(=O)[C@@H](NC(=O)CCCCCNC(=O)Cn2cc(-c3ccc4cc(O)c(N5CC(=O)NS5(=O)=O)c(F)c4c3)cn2)C(C)(C)C)cc1
EC50 [1]: 13100 nM | Activity (Jurkat [2]): inactive | Activity (Jurkat [3]): inactive | Activity [4]: 81% | Activity (Jurkat [5]): inactive | Activity [6]: Active | Activity (Jurkat [7]): inactive | Activity [8]: 99% | Activity (Jurkat [9]): inactive | Activity [10]: Tde | Activity [11]: Active | Activity (B16-F10 [12]): inactive | Activity [13]: Dose-Dependent Effect | Activity ([14]; DEGRADER): Active | Activity [14]: inactive | Activity (B16-F10 [15]): inactive | Activity (Splenocyte [16]): inactive | Activity (Splenocyte [17]): inactive | Activity (HepG2): inactive | Activity [18]: Active | Activity ([19]; DEGRADER): Active | Activity [19]: inactive | Activity (Splenocyte [20]): inactive | EC50 [21]: 217 nM | Activity (Jurkat [22]): inactive | Activity (B16-F10 [23]): inactive | Activity (Jurkat [24]): inactive | Activity (Jurkat [25]): inactive | Activity [26]: 43% | Activity (Jurkat [27]): inactive | Activity (Jurkat [28]): inactive | inhibition (B16-F10 [29]): Dose-Dependent Effect | Activity [30]: Active | Activity (Splenocyte [31]): Dose-Dependent Effect

SMILES: Cc1ncsc1-c1ccc([C@H](C)NC(=O)[C@@H]2C[C@@H](Oc3ccccc3)CN2C(=O)[C@@H](NC(=O)CCCCCNC(=O)Cn2cc(-c3ccc4cc(O)c(N5CC(=O)NS5(=O)=O)c(F)c4c3)cn2)C(C)(C)C)cc1
Activity (Splenocyte [33]): inactive

SMILES: Cc1ncsc1-c1ccc([C@H](C)NC(=O)[C@@H]2C[C@@H](O)CN2C(=O)[C@@H](NC(=O)CNC2CCN(C(=O)Cn3cc(-c4ccc5cc(O)c(N6CC(=O)NS6(=O)=O)c(F)c5c4)cn3)CC2)C(C)(C)C)cc1
Activity [4]: 72% | Activity [8]: 99% | Activity [26]: -17% | Activity [34]: 20%

SMILES: Cc1ncsc1-c1ccc([C@H](C)NC(=O)[C@@H]2C[C@@H](O)CN2C(=O)[C@@H](NC(=O)CCCCCCCCCCNC(=O)Cn2cc(-c3ccc4cc(O)c(N5CC(=O)NS5(=O)=O)c(F)c4c3)cn2)C(C)(C)C)cc1
EC50 [1]: 2000 nM | Activity [4]: 71% | Activity [8]: 98% | EC50 [21]: 571 nM | Activity [26]: 4%

Second part, the compound after the results:

IC50 [32]: 950 nM
SMILES: CC(C)(C)C(=O)Nc1ccc2c(c1)C(=O)C(=O)c1ccccc1-2

IC50 [35]: 11.4 nM | IC50 [36]: 8.39 nM
SMILES: O=C1CN(c2c(O)cc3ccc(Br)cc3c2F)S(=O)(=O)N1
